# In PubChem BioAssay (NCI):
#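 48-hour exposure; five concentrations; linearly interpolated endpoints. TGI denotes the concentration required for complete inhibition of growth.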
# Legend:
# Assay in all cases: NCI anticancer screen, dose series, 48 h
# [1] = tested on: SW-620 colon
# [2] = tested on: SF-295 CNS
# [3] = tested on: SNB-75 CNS
# [4] = tested on: U251 CNS
# [5] = tested on: LOX IMVI melanoma
# [6] = tested on: SNB-78 CNS
# [7] = tested on: HL-60(TB) leukemia
# [8] = tested on: RPMI-8226 leukemia
# [9] = tested on: SK-MEL-2 melanoma
# [10] = tested on: CAKI-1 renal
# [11] = tested on: DMS 273 small cell lung
# [12] = tested on: TK-10 renal
# [13] = tested on: LXFL 529 NSCLC
# [14] = tested on: COLO 205 colon
# [15] = tested on: A549 NSCLC
# [16] = tested on: SF-268 CNS
# [17] = tested on: OVCAR-8 ovarian
# [18] = tested on: SK-MEL-28 melanoma
# [19] = tested on: KM20L2 colon
# [20] = tested on: SK-OV-3 ovarian
# [21] = tested on: NCI-H522 lung
# [22] = tested on: RXF-631 renal
# [23] = tested on: DLD-1 colon
# [24] = tested on: CCRF-CEM leukemia
# [25] = tested on: OVCAR-4 ovarian
# [26] = tested on: HCT-116 colon
# [27] = tested on: ACHN renal
# [28] = tested on: OVCAR-5 ovarian
# [29] = tested on: SN12C renal
# [30] = tested on: HT29 colon
# [31] = tested on: HCC-2998 colon
# [32] = tested on: RXF 393 renal
# [33] = tested on: SNB-19 CNS
# [34] = tested on: IGROV1 ovarian
# [35] = tested on: MOLT-4 leukemia
# [36] = tested on: SF-539 CNS
# [37] = tested on: MALME-3M melanoma
# [38] = tested on: SK-MEL-5 melanoma
# [39] = tested on: NCI-H460 lung
# [40] = tested on: UO-31 renal
# [41] = tested on: UACC-62 melanoma
# [42] = tested on: DMS 114 small cell lung
# [43] = tested on: HOP-62 NSCLC
# [44] = tested on: HOP-92 NSCLC
# [45] = tested on: NCI-H23 lung
# [46] = tested on: EKVX NSCLC
# [47] = tested on: HCT-15 colon
# [48] = tested on: OVCAR-3 ovarian
# [49] = tested on: SR leukemia
# [50] = tested on: 786-0 renal
# [51] = tested on: K-562 leukemia
# [52] = tested on: NCI-H226 lung
# [53] = tested on: A498 renal
# [54] = tested on: UACC-257 melanoma
# [55] = tested on: M14 melanoma
# [56] = tested on: KM12 colon
# [57] = tested on: HOP-18 NSCLC
# [58] = tested on: XF 498 CNS
# [59] = tested on: M19-MEL melanoma
smiles,measurement,setting,value
COC(=O)C1=CC(=O)C(C(=O)Nc2ccc(OC)cc2)C(c2ccccc2)O1 (centres undefined),TGI,[1],> 100 µM
same,TGI,[2],61.4 µM
same,TGI,[3],43.1 µM
same,TGI,[4],51.2 µM
same,TGI,[5],> 72.9 µM
same,TGI,[6],> 81.9 µM
same,TGI,[7],> 100 µM
same,TGI,[8],> 100 µM
same,TGI,[9],> 100 µM
same,TGI,[10],> 60 µM
same,TGI,[11],> 71 µM
same,TGI,[12],73.5 µM
same,TGI,[13],62.4 µM
same,TGI,[14],> 100 µM
same,TGI,[15],> 72.9 µM
same,TGI,[16],37.3 µM
same,TGI,[17],96.8 µM
same,TGI,[18],> 86.3 µM
same,TGI,[19],> 100 µM
same,TGI,[20],53.5 µM
same,TGI,[21],90.1 µM
same,TGI,[22],> 83.6 µM
same,TGI,[23],> 100 µM
same,TGI,[24],> 100 µM
same,TGI,[25],> 77.9 µM
same,TGI,[26],> 75.9 µM
same,TGI,[27],> 71.9 µM
same,TGI,[28],> 100 µM
same,TGI,[29],> 89.1 µM
same,TGI,[30],> 100 µM
same,TGI,[31],> 78.7 µM
same,TGI,[32],52.8 µM
same,TGI,[33],42 µM
same,TGI,[34],51 µM
same,TGI,[35],> 100 µM
same,TGI,[36],40.3 µM
same,TGI,[37],> 84.8 µM
same,TGI,[38],> 73.7 µM
same,TGI,[39],> 100 µM
same,TGI,[40],90.6 µM
same,TGI,[41],> 89.6 µM
same,TGI,[42],> 67.5 µM
same,TGI,[43],50.9 µM
same,TGI,[44],48.1 µM
same,TGI,[45],46.6 µM
same,TGI,[46],> 100 µM
same,TGI,[47],> 100 µM
same,TGI,[48],58.8 µM
same,TGI,[49],> 100 µM
same,TGI,[50],41.5 µM
same,TGI,[51],> 100 µM
same,TGI,[52],55.1 µM
same,TGI,[53],68 µM
same,TGI,[54],> 100 µM
same,TGI,[55],98.7 µM
same,TGI,[56],> 100 µM
CCCOC(=O)C1CCC(=O)N1C(=O)C(Cl)Cl (centres undefined),TGI,[1],> 100 µM
same,TGI,[2],> 100 µM
same,TGI,[3],> 100 µM
same,TGI,[4],> 100 µM
same,TGI,[5],> 100 µM
same,TGI,[57],> 100 µM
same,TGI,[6],> 100 µM
same,TGI,[7],> 100 µM
same,TGI,[8],> 100 µM
same,TGI,[9],> 100 µM
same,TGI,[10],> 100 µM
same,TGI,[11],> 100 µM
same,TGI,[12],> 100 µM
same,TGI,[13],> 100 µM
same,TGI,[14],> 100 µM
same,TGI,[15],> 100 µM
same,TGI,[16],> 100 µM
same,TGI,[58],> 100 µM
same,TGI,[17],> 100 µM
same,TGI,[18],> 100 µM
same,TGI,[19],> 100 µM
same,TGI,[20],> 100 µM
same,TGI,[21],> 100 µM
same,TGI,[23],> 100 µM
same,TGI,[24],> 100 µM
same,TGI,[25],> 100 µM
same,TGI,[26],> 100 µM
same,TGI,[27],> 100 µM
same,TGI,[28],> 100 µM
same,TGI,[59],> 100 µM
same,TGI,[29],> 100 µM
same,TGI,[30],> 100 µM
same,TGI,[31],> 100 µM
same,TGI,[33],> 100 µM
same,TGI,[34],> 100 µM
same,TGI,[35],> 100 µM
same,TGI,[37],> 100 µM
same,TGI,[38],> 100 µM
same,TGI,[39],> 100 µM
same,TGI,[40],> 100 µM
same,TGI,[41],> 100 µM
same,TGI,[42],> 100 µM
same,TGI,[43],> 100 µM
same,TGI,[44],> 100 µM
same,TGI,[45],> 100 µM
same,TGI,[46],> 100 µM
same,TGI,[47],> 100 µM
same,TGI,[48],> 100 µM
same,TGI,[50],> 100 µM
same,TGI,[51],> 100 µM
same,TGI,[52],> 100 µM
same,TGI,[53],> 100 µM
same,TGI,[54],> 100 µM
same,TGI,[55],> 100 µM
same,TGI,[56],> 100 µM
COC(=O)C1Cc2c([nH]c3ccccc23)[C@H](CC(C)C)N1 (some centres undefined),TGI,[1],> 100 µM
same,TGI,[2],> 100 µM
same,TGI,[3],> 100 µM
same,TGI,[4],> 100 µM
same,TGI,[5],> 100 µM
same,TGI,[57],> 100 µM
same,TGI,[6],> 100 µM
same,TGI,[7],> 100 µM
same,TGI,[8],> 100 µM
same,TGI,[9],> 100 µM
same,TGI,[11],> 100 µM
same,TGI,[12],> 100 µM
same,TGI,[13],> 100 µM
same,TGI,[14],> 100 µM
same,TGI,[15],> 100 µM
same,TGI,[16],> 100 µM
same,TGI,[58],> 100 µM
same,TGI,[17],> 100 µM
same,TGI,[18],> 100 µM
same,TGI,[19],> 100 µM
same,TGI,[20],> 100 µM
same,TGI,[21],> 100 µM
same,TGI,[23],> 100 µM
same,TGI,[24],> 100 µM
same,TGI,[26],> 100 µM
same,TGI,[27],> 100 µM
same,TGI,[28],> 100 µM
same,TGI,[59],> 100 µM
same,TGI,[29],> 100 µM
same,TGI,[30],> 100 µM
same,TGI,[31],> 100 µM
same,TGI,[32],> 100 µM
same,TGI,[33],> 100 µM
same,TGI,[34],> 100 µM
same,TGI,[35],> 100 µM
same,TGI,[36],> 100 µM
same,TGI,[37],> 100 µM
same,TGI,[40],> 100 µM
same,TGI,[41],> 100 µM
same,TGI,[42],> 100 µM
same,TGI,[43],> 100 µM
same,TGI,[44],> 100 µM
same,TGI,[45],> 100 µM
same,TGI,[46],> 100 µM
same,TGI,[48],> 100 µM
same,TGI,[49],> 100 µM
same,TGI,[50],> 100 µM
same,TGI,[51],> 100 µM
same,TGI,[52],> 100 µM
same,TGI,[53],> 100 µM
same,TGI,[54],> 100 µM
same,TGI,[55],> 100 µM
same,TGI,[56],> 100 µM
